Data from patent US9458176B2, “Tetrahydroimidazo(1,5-D)[1,4]oxazepine derivative” (Eisai R&D Management Co., Ltd., priority 2013, dated 2016).

Target: human mGluR2 (Homo sapiens (Human), UniProt Q14416)
Assay: [35S]GTPγS binding assay (Affinity to mGluR2)
Type: biochemical
Conditions: cell membrane fraction of HEK293 cells stably expressing human mGluR2, glutamic acid 10 μM
Experimental: (Preparation of Cell Membrane Fraction of HEK293 Cells Stably Expressing Human Metabotropic Glutamate Receptor 2 (mGluR2))
HEK293 cells stably expressing human mGluR2 and human glutamate transporter SLC1A3 were cultured in a Dulbecco's modified Eagle's medium with 10% fetal bovine serum (50 units/mL of penicillin, 50 μg/mL of streptomycin, 60 μg/mL of geneticin, 400 μg/mL of hygromycin B and 2 mM of glutamine) at 37° C. under 5% CO2. Confluent cell cultures were washed twice with PBS(−), and then scraped off with a cell scraper, and subjected to centrifugal separation at 4° C. and 1500 rpm for 5 minutes for collecting cells. The centrifuged sediment (cell pellet) was homogenized in a 20 mM HEPES buffer containing 10 mM EDTA (pH 7.4) by using sonicator and centrifuged at 4° C. and 1500×g for 30 minutes. The supernatant (soluble fraction) was subjected to the centrifugal separation at 4° C. and 40,000×g for 30 minutes, and thus, insoluble fraction was obtained. After additional centrifugally washing the obtained fraction with 20 mM HEPES buffer containing 10 mM EDTA (pH 7.4), the pellet was centrifugally suspended with a 20 mM HEPES buffer containing 0.1 mM EDTA, and the cell membrane fraction was obtained by the centrifugal separation at 4° C. and 40,000×g for 30 minutes. The thus obtained cell membrane fraction was suspended in a 20 mM HEPES buffer containing 0.1 mM EDTA in a protein concentration of 3 mg/mL, which was stored at −80° C.
([^35S]GTPγS Binding Assay)
The frozen cell membrane fraction prepared as described above was thawed before use, and the resultant was diluted with a buffer for a binding assay (final concentrations: 20 mM HEPES, 100 mM NaCl, 1 mM MgCl2, 3 μM GDP, 300 μg/mL saponin, 0.1% BSA). The compound of each example was added to a cell membrane fraction containing 1.8 to 3 μg/assay of membrane protein on a plate, followed by incubation at room temperature for 30 minutes. Thereafter, with glutamic acid (in a final concentration of 10 μM) added thereto, incubation was performed at room temperature for 15 minutes, and thereafter, [^35S]GTPγS (in a final concentration of 0.8 kBq) and 588 μg WGA-SPA beads were added thereto, followed by incubation at room temperature for 1 hour. After the incubation, the plate was subjected to the centrifugal separation at 2,500 rpm and room temperature, and then, membrane cell binding radioactivity was measured with a top count.
A [^35S]GTPγS binding amount obtained by performing the above-described reaction in the absence of glutamic acid was defined as nonspecific binding, and a difference from a [^35S]GTPγS binding amount obtained in the presence of glutamic acid was defined as specific binding. On the basis of ratios of inhibiting the specific binding at various concentrations of the compounds of the respective examples, inhibition curves were obtained. Concentrations of the compounds of the respective examples at which the specific [^35S]GTPγS binding amount was suppressed by 50% (IC50 values) were calculated on the basis of the inhibition curves and shown in Tables 8 and 9.

[1] = inhibition of specific [35S]GTPγS binding

Sequence of human mGluR2 (Q14416 19-872): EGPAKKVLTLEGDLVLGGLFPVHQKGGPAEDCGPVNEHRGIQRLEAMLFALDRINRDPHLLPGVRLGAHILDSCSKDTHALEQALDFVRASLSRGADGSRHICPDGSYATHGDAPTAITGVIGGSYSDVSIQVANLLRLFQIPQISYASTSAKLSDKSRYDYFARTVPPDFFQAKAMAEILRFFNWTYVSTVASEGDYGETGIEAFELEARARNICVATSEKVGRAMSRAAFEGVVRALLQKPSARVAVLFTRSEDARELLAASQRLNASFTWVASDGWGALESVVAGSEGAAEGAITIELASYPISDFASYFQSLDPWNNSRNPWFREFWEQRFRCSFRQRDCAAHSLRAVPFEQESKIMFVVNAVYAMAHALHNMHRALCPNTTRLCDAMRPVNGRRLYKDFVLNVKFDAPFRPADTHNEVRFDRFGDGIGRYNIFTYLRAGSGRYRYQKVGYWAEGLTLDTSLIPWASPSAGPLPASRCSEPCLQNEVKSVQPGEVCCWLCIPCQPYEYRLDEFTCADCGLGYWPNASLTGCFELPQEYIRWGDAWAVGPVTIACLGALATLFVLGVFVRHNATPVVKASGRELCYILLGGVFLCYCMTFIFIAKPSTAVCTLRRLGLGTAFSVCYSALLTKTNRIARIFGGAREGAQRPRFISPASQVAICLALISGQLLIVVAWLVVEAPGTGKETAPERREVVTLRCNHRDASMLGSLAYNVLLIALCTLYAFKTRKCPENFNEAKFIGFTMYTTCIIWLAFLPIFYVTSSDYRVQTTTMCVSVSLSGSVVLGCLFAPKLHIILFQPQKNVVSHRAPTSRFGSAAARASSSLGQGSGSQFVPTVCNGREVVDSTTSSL

| IC50 | IC50 [1] | SMILES |
| --- | --- | --- |
| 1.1 nM |  | CCOc1cc(-c2nc(-c3cc(C)nc(C)c3)c3n2C[C@@H](C)OCC3)ccc1C(F)(F)F [Example 82] |
|  | 100 nM | Cc1cc(-c2nc(-c3ccc(OC(F)(F)F)c(F)c3)n3c2CCO[C@H](C)C3)cc(CO)n1 [Example 180] |
| 19.2 nM |  | Cc1cc(-c2nc(-c3ccc(Cl)c(C(F)(F)F)c3)n3c2CCOCC3)cc(C)n1 [Example 108] |
| 7.6 nM |  | CCc1ccc(-c2nc(-c3ccnc(C)c3)c3n2C[C@@H](C)OCC3)cc1OC [Example 101] |
| 13.9 nM |  | Cc1cc(-c2nc(-c3ccc(Cl)c(OCC(F)(F)F)c3)n3c2CCOCC3)cc(C)n1 [Example 3, 3-(4-chloro-3-(2,2,2-trifluoroethoxy)phenyl)-1-(2,6-dimethylpyridin-4-yl)-5,6,8,9-tetrahydroimidazo[1,5-d][1,4]oxazepine] |
|  | 16.1 nM | Cc1cc(-c2nc(-c3ccc(OC(F)F)c(F)c3)n3c2CCO[C@H](C)C3)cc(C)n1 [Example 181] |
|  | 38.8 nM | COc1cc(-c2nc(-c3cc(C)nc(C(F)F)c3)c3n2C[C@@H](CF)OCC3)ccc1Cl [Example 176] |
| 9.1 nM |  | COc1cc(-c2nc(-c3cc(C)nc(C)c3)c3n2C[C@@H](C)OCC3)ccc1C(F)F [Example 128] |
| 26.5 nM |  | Cc1cc(-c2nc(-c3ccc(F)c(OCCF)c3)n3c2CCO[C@H](C)C3)cc(C)n1 [Example 5, (R)-1-(2,6-dimethylpyridin-4-yl)-3-(4-fluoro-3-(2-fluoroethoxy)phenyl)-6-methyl-5,6,8,9-tetrahydroimidazo[1,5-d][1,4]oxazepine] |
|  | 1.7 nM | CCOc1ccc(-c2nc(-c3cc(C)nc(C)c3)c3n2C[C@@H](CF)OCC3)cc1C [Example 243] |
|  | 1.9 nM | Cc1cc(-c2nc(-c3ccc(OC(F)F)c(CF)c3)n3c2CCO[C@H](C)C3)cc(C)n1 [Example 234] |
| 4.4 nM |  | Cc1cc(-c2nc(-c3ccc(OC(F)(F)F)c(Cl)c3)n3c2CCO[C@H](C)C3)cc(C)n1 [Example 133] |
| 96.3 nM |  | COc1ccc(-c2nc(-c3cc(C)nc(C)c3)c3n2C[C@@H](C)OCC3)cc1F [Example 59] |
| 4.1 nM |  | Cc1cc(-c2nc(-c3ccc(OC4CC4)c(C)c3)n3c2CCO[C@H](CF)C3)cc(C)n1 [Example 22, (S)-3-(4-cyclopropoxy-3-methylphenyl)-1-(2,6-dimethylpyridin-4-yl)-6-(fluoromethyl)-5,6,8,9-tetrahydroimidazo[1,5-d][1,4]oxazepine] |
| 3.1 nM |  | Cc1cc(-c2nc(-c3ccc(F)c(OCC4CCC4)c3)n3c2CCO[C@H](C)C3)cc(C)n1 [Example 98] |
| 31.2 nM |  | Cc1cc(-c2nc(-c3cccc(OC(F)(F)F)c3)n3c2CCO[C@H](C)C3)cc(C)n1 [Example 64] |
|  | 17.8 nM | COc1ccc(-c2nc(-c3cc(C)nc(C(F)F)c3)c3n2C[C@@H](C)OCC3)cc1C [Example 178] |
|  | 58.1 nM | Cc1cc(-c2nc(-c3ccc(OC(F)F)c(Cl)c3)n3c2CCOCC3)cc(C)n1 [Example 215] |
| 33.8 nM |  | Cc1cc(-c2nc(-c3ccc(OC(F)(F)F)c(C#N)c3)n3c2CCOCC3)cc(C)n1 [Example 116] |
| 2.7 nM |  | COc1cc(-c2nc(-c3cc(C)nc(C)c3)c3n2C[C@@H](CF)OCC3)ccc1OC(F)(F)F [Example 16, (S)-1-(2,6-dimethylpyridin-4-yl)-6-(fluoromethyl)-3-(3-methoxy-4-(trifluoromethoxy)phenyl)-5,6,8,9-tetrahydroimidazo[1,5-d][1,4]oxazepine] |
| 24.8 nM |  | Cc1cc(-c2nc(-c3ccc(Cl)c(C)c3)n3c2CCO[C@H](CF)C3)cc(C)n1 [Example 73] |
|  | 30.3 nM | Cc1cc(-c2nc(-c3ccc(OC(F)F)c(CO)c3)n3c2CCO[C@H](C)C3)ccn1 [Example 237] |
|  | 15.8 nM | COc1cc(-c2nc(-c3cc(C)nc(C)c3)c3n2C[C@@H](CF)OCC3)ccc1OC(F)F [Example 163] |
| 7.8 nM |  | Cc1cc(-c2nc(-c3ccc(OC(F)(F)F)cc3)n3c2CCO[C@H](C)C3)cc(C)n1 [Example 51] |

| IC50 | IC50 [1] | SMILES |
| --- | --- | --- |
|  | 5 nM | Cc1cc(-c2nc(-c3ccc(OC4CC4)c(Cl)c3)n3c2CCO[C@H](C)C3)ccn1 [Example 159] |
|  | 26.7 nM | Cc1cc(-c2nc(-c3ccc(F)c(Cl)c3)n3c2CCO[C@H](CF)C3)cc(C)n1 [Example 171] |
|  | 19.3 nM | Cc1cc(-c2nc(-c3ccc(C(F)(F)F)c(C)c3)n3c2CCO[C@H](CF)C3)cc(C)n1 [Example 186] |
|  | 27.1 nM | Cc1cc(-c2nc(-c3ccc(OC(F)(F)F)c(CF)c3)n3c2CCOCC3)cc(C)n1 [Example 211] |
| 5 nM |  | COc1ccc(-c2nc(-c3cc(C)nc(C)c3)c3n2C[C@@H](C)OCC3)cc1Cl [Example 33, (R)-3-(3-chloro-4-methoxyphenyl)-1-(2,6-dimethylpyridin-4-yl)-6-methyl-5,6,8,9-tetrahydroimidazo[1,5-d][1,4]oxazepine] |
|  | 50.4 nM | Cc1cc(-c2nc(-c3ccc(C)c(OCC4CC4)c3)n3c2CCO[C@H](C)C3)ccn1 [Example 224] |
| 5.7 nM |  | COc1cc(-c2nc(-c3cc(C)nc(CF)c3)c3n2C[C@@H](C)OCC3)ccc1Cl [Example 13, (R)-3-(4-chloro-3-methoxyphenyl)-1-(2-(fluoromethyl)-6-methylpyridin-4-yl)-6-methyl-5,6,8,9-tetrahydroimidazo[1,5-d][1,4]oxazepine] |
| 31.8 nM |  | Cc1cc(-c2nc(-c3ccc(OC(F)F)c(F)c3)n3c2CCOCC3)cc(C)n1 [Example 119] |
|  | 4.2 nM | Cc1cc(-c2nc(-c3ccc(OC(F)(F)F)c(C#N)c3)n3c2CCO[C@H](C)C3)cc(C)n1 [Example 168] |
| 5.4 nM |  | Cc1cc(-c2nc(-c3ccc(OC(C)C)c(Cl)c3)n3c2CCO[C@H](CF)C3)cc(C)n1 [Example 38, (S)-3-(3-chloro-4-isopropoxyphenyl)-1-(2,6-dimethylpyridin-4-yl)-6-(fluoromethyl)-5,6,8,9-tetrahydroimidazo[1,5-d][1,4]oxazepine] |
|  | 12.7 nM | Cc1cc(-c2nc(-c3ccc(F)c(OC(F)(F)F)c3)n3c2CCO[C@H](C)C3)cc(C)n1 [Example 157] |
|  | 1.8 nM | Cc1cc(-c2nc(-c3ccc(OC(C)C)c(C)c3)n3c2CCO[C@H](CF)C3)cc(C)n1 [Example 244] |
|  | 14 nM | Cc1cc(-c2nc(-c3ccc(OC(F)(F)F)c(F)c3)n3c2CCO[C@H](CF)C3)cc(CF)n1 [Example 202] |
|  | 19.5 nM | Cc1cc(-c2nc(-c3ccc(F)c(OC(F)F)c3)n3c2CCO[C@H](C)C3)ccn1 [Example 185] |
|  | 4.4 nM | COc1cc(-c2nc(-c3cc(C)nc(CF)c3)c3n2C[C@@H](C)OCC3)ccc1C(F)(F)F [Example 200] |
|  | 14.5 nM | Cc1cc(-c2nc(-c3ccc(Cl)c(C(F)(F)F)c3)n3c2CCO[C@H](C)C3)ccn1 [Example 152] |
| 90 nM |  | Cc1cc(-c2nc(-c3ccc(OC(F)(F)F)cc3)n3c2CCOCC3)ccn1 [Example 43] |
| 65.6 nM |  | COc1cc(-c2nc(-c3cc(C)nc(C)c3)c3n2CCOCC3)ccc1C [Example 46] |
| 6 nM |  | CCOc1ccc(-c2nc(-c3cc(C)nc(C)c3)c3n2C[C@@H](CF)OCC3)cc1Cl [Example 37, (S)-3-(3-chloro-4-ethoxyphenyl)-1-(2,6-dimethylpyridin-4-yl)-6-(fluoromethyl)-5,6,8,9-tetrahydroimidazo[1,5-d][1,4]oxazepine] |
| 26 nM |  | Cc1cc(-c2nc(-c3ccc(Cl)c(Cl)c3)n3c2CCOCC3)cc(C)n1 [Example 103] |
| 5.2 nM |  | COc1cc(-c2nc(-c3cc(C)nc(CF)c3)c3n2C[C@@H](C)OCC3)ccc1OC(F)(F)F [Example 30, (R)-1-(2-(fluoromethyl)-6-methylpyridin-4-yl)-3-(3-methoxy-4-(trifluoromethoxy)phenyl)-6-methyl-5,6,8,9-tetrahydroimidazo[1,5-d][1,4]oxazepine] |
|  | 48 nM | CCOc1ccc(-c2nc(-c3cc(C)nc(C)c3)c3n2CCOCC3)cc1Cl [Example 216] |
|  | 6 nM | Cc1cc(-c2nc(-c3ccc(OC(F)F)c(C)c3)n3c2CCO[C@H](CF)C3)cc(CF)n1 [Example 207] |
| 41.8 nM |  | Cc1cc(-c2nc(-c3ccc(Cl)c(F)c3)n3c2CCO[C@H](C)C3)ccn1 [Example 58] |
